# Measured values: the supplement of paper PMC6965134
# ± gives the standard deviation of the averaged measurements.
# Test: TIMS collisional cross section (CCS, N2) of the lipid ion; higher = larger ion cross section
# Conditions: ionization mode: positive, one isomer drawn
# Procedure: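 Lipid extracts of human plasma (NIST SRM 1950), mouse liver and HeLa cells were separated by nanoflow C18 LC (30 min gradient, 60 °C) and analysed by TIMS-PASEF on a timsTOF Pro in positive ion mode. Ion mobility was calibrated with the Agilent tuning mix and converted to collisional cross sections (Mason–Schamp) in N2 drift gas. Lipids were identified by MS/MS (SimLipid) and manual curation. SMILES are LIPID MAPS representative structures for the annotated lipid.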
TIMS collisional cross section (sample type: plasma) [Å²],TIMS collisional cross section (sample type: HeLa) [Å²],TIMS collisional cross section (sample type: Liver) [Å²],SMILES
229.87 ± 0.98,230.8,230.6,CCCCCCCCCCCCCCCC(=O)OC[C@@H](O)COP(=O)([O-])OCC[N+](C)(C)C [LPC 16:0_0:0] (ion (formula + adduct): [C24H50NO7P+H] 1+)
225.13 ± 1.1,226,224.5,CCCCCC/C=C/CCCCCCCC(=O)OC[C@@H](O)COP(=O)([O-])OCC[N+](C)(C)C [LPC 16:1] (ion (formula + adduct): [C24H48NO7P+H] 1+)
225.77 ± 1.4,–,–,CCCCCC/C=C/CCCCCCCC(=O)OC[C@@H](O)COP(=O)([O-])OCC[N+](C)(C)C [LPC 16:1_0:0] (ion (formula + adduct): [C24H48NO7P+H] 1+)
238.4,237.1,–,CCCCCCCCCCCCCCCCCC(=O)O[C@H](CO)COP(=O)([O-])OCC[N+](C)(C)C [LPC 18:0] (ion (formula + adduct): [C26H54NO7P+H] 1+)
231.9,–,–,CCCCCCCCCCC/C=C\CCCCC(=O)O[C@H](CO)COP(=O)([O-])OCC[N+](C)(C)C [LPC 18:1] (ion (formula + adduct): [C26H52NO7P+H] 1+)
232.8 ± 0.42,233.6,232.95 ± 1.1,CCCCCCCCCCC/C=C\CCCCC(=O)OC[C@@H](O)COP(=O)([O-])OCC[N+](C)(C)C [LPC 18:1_0:0] (ion (formula + adduct): [C26H52NO7P+H] 1+)
226.96 ± 1.1,227.3 ± 1.3,227.6 ± 1.3,CCCCCCCCCCCCC/C=C/C=C/C(=O)OC[C@@H](O)COP(=O)([O-])OCC[N+](C)(C)C [LPC 18:2_0:0] (ion (formula + adduct): [C26H50NO7P+H] 1+)
224.9,–,–,CC/C=C\C/C=C\C/C=C\CCCCCCCC(=O)OC[C@@H](O)COP(=O)([O-])OCC[N+](C)(C)C [LPC 18:3] (ion (formula + adduct): [C26H48NO7P+H] 1+)
239.3,–,239,CCCCCCCCCC/C=C\CCCCCCCC(=O)OC[C@@H](O)COP(=O)([O-])OCC[N+](C)(C)C [LPC 20:1_0:0] (ion (formula + adduct): [C28H56NO7P+H] 1+)
232.57 ± 2.1,234.05 ± 2.8,236.2,CCCCC/C=C\C/C=C\C/C=C\CCCCCCC(=O)OC[C@@H](O)COP(=O)([O-])OCC[N+](C)(C)C [LPC 20:3] (ion (formula + adduct): [C28H52NO7P+H] 1+)
232.43 ± 1.2,–,231.55 ± 1.1,CCCCC/C=C\C/C=C\C/C=C\CCCCCCC(=O)OC[C@@H](O)COP(=O)([O-])OCC[N+](C)(C)C [LPC 20:3_0:0] (ion (formula + adduct): [C28H52NO7P+H] 1+)
231.1,–,–,CCCCC/C=C\C/C=C\C/C=C\C/C=C\CCCC(=O)O[C@H](CO)COP(=O)([O-])OCC[N+](C)(C)C [LPC 20:4] (ion (formula + adduct): [C28H50NO7P+H] 1+)
247.6,247.3,–,CCCCCCCCCC/C=C\CCCCCCCCCC(=O)OC[C@@H](O)COP(=O)([O-])OCC[N+](C)(C)C [LPC 22:1] (ion (formula + adduct): [C30H60NO7P+H] 1+)
246.6,246.1,–,CCCCCCCCCC/C=C\CCCCCCCCCC(=O)OC[C@@H](O)COP(=O)([O-])OCC[N+](C)(C)C [LPC 22:1_0:0] (ion (formula + adduct): [C30H60NO7P+H] 1+)
242,–,–,CCCCC/C=C\C/C=C\CCCCCCCCCCCC(=O)OC[C@@H](O)COP(=O)([O-])OCC[N+](C)(C)C [LPC 22:2] (ion (formula + adduct): [C30H58NO7P+H] 1+)
237.55 ± 1.2,–,–,CCCCC/C=C\C/C=C\C/C=C\C/C=C\CCCCCC(=O)OC[C@@H](O)COP(=O)([O-])OCC[N+](C)(C)C [LPC 22:4] (ion (formula + adduct): [C30H54NO7P+H] 1+)

# The next lines start with the compound.
SMILES,TIMS collisional cross section (sample type: plasma) [Å²],TIMS collisional cross section (sample type: HeLa) [Å²],TIMS collisional cross section (sample type: Liver) [Å²]
CCCCCCCCCCCCCCCCCCCCCC(=O)OC[C@H](CO)OC(=O)CCCCCCCCCCCCCCCCCCCCC [DG 22:0_22:0_0:0] (ion (formula + adduct): [C47H92O5+NH4] 1+),301.3,–,–
C[C@H](CO)CC[C@H](O)[C@@H](C)[C@H]1CC[C@H]2[C@@H]3CC=C4C[C@@H](O)CC[C@]4(C)[C@H]3CC[C@]12C [Dormatinol] (ion (formula + adduct): [C27H46O3+H] 1+),210.9,–,–
CCCCCCCCCCCCC/C=C/[C@@H](O)[C@H](CO[C@@H]1OC(CO)[C@@H](O[C@@H]2OC(CO)[C@H](O)[C@H](O)C2O)[C@H](O)C1O)NC(=O)CCCCCCCCCCCCC (some centres not stated) [GlcCer d18:1_14:0@] (ion (formula + adduct): [C44H83NO13+H] 1+),–,297.2,–
CCCCCCCCCCCCC/C=C/[C@@H](O)[C@H](CO[C@@H]1OC(CO)[C@@H](O[C@@H]2OC(CO)[C@H](O)[C@H](O)C2O)[C@H](O)C1O)NC(=O)CCCCCCCCCCCCCCC (some centres not stated) [GlcCer d18:1_16:0@] (ion (formula + adduct): [C46H87NO13+H] 1+),304.2,–,–
CCCCCCCCCCCCC/C=C/[C@@H](O)[C@H](CO[C@@H]1OC(CO)[C@@H](O[C@@H]2OC(CO)[C@H](O)[C@H](O)C2O)[C@H](O)C1O)NC(=O)CCCCCCCCCCCCCCC (some centres not stated) [GlcCer d18:1_16:0] (ion (formula + adduct): [C46H87NO13+H] 1+),–,304.1,–
CCCCCCCCCCCCC/C=C/[C@@H](O)[C@H](CO[C@@H]1O[C@H](CO)[C@@H](O)C(O)C1O)NC(=O)CCCCCCCCCCCCCCCCCCC (some centres not stated) [GlcCer d18:1_20:0@] (ion (formula + adduct): [C44H85NO8+H] 1+),–,–,292.9
CCCCCCCCCCCCC/C=C/[C@@H](O)[C@H](CO[C@@H]1O[C@H](CO)[C@@H](O)C(O)C1O)NC(=O)CCCCCCCCCCCCCCCCCCCCC (some centres not stated) [GlcCer d18:1_22:0@] (ion (formula + adduct): [C46H89NO8+H] 1+),298.1,298.3,298.7
CCCCCCCCCCCCC/C=C/[C@@H](O)[C@H](CO[C@@H]1O[C@H](CO)[C@@H](O)C(O)C1O)NC(=O)CCCCCCCCCCCCCCCCCCCCCC (some centres not stated) [GlcCer d18:1_23:0@] (ion (formula + adduct): [C47H91NO8+H] 1+),–,301.5,301.2
CCCCCCCCCCCCC/C=C/[C@@H](O)[C@H](CO[C@@H]1O[C@H](CO)[C@@H](O)C(O)C1O)NC(=O)CCCCCCCCCCCCCCCCCCCCCCC (some centres not stated) [GlcCer d18:1_24:0@] (ion (formula + adduct): [C48H93NO8+H] 1+),–,304.2,304.1
CCCCCCCC/C=C\CCCCCCCCCCCCCC(=O)N[C@@H](CO[C@@H]1O[C@H](CO)[C@@H](O)C(O)C1O)[C@H](O)/C=C/CCCCCCCCCCCCC (some centres not stated) [GlcCer d18:1_24:1@] (ion (formula + adduct): [C48H91NO8+H] 1+),–,–,302.8
CCCCC/C=C\C/C=C\C/C=C\C/C=C\CCCC(=O)OC[C@@H](O)COP(=O)(O)O [LPA 20:4_0:0] (ion (formula + adduct): [C23H39O7P+H] 1+),205,–,–
CCCCCCCCCCCCCC(=O)OC[C@@H](O)COP(=O)([O-])OCC[N+](C)(C)C [LPC 14:0_0:0] (ion (formula + adduct): [C22H46NO7P+H] 1+),222.55 ± 0.78,222.8,–
CCCCCCCCCCCCCCCC(=O)O[C@H](CO)COP(=O)([O-])OCC[N+](C)(C)C [LPC 16:0] (ion (formula + adduct): [C24H50NO7P+H] 1+),231,–,229.9
CC/C=C/C=C/C=C/C=C/CCCCCCCC(=O)OC[C@@H](O)COP(=O)([O-])OCC[N+](C)(C)C [LPC 18:4] (ion (formula + adduct): [C26H46NO7P+H] 1+),220.8,–,–
CCCCCCCCCCCCCCCCCCCC(=O)OC[C@@H](O)COP(=O)([O-])OCC[N+](C)(C)C [LPC 20:0_0:0] (ion (formula + adduct): [C28H58NO7P+H] 1+),245,–,–
CCCCC/C=C\C/C=C\C/C=C\C/C=C\CCCC(=O)OC[C@@H](O)COP(=O)([O-])OCC[N+](C)(C)C [LPC 20:4] (ion (formula + adduct): [C28H50NO7P+H] 1+),231.65 ± 3.2,–,230
CC/C=C\C/C=C\C/C=C\C/C=C\C/C=C\CCCC(=O)OC[C@@H](O)COP(=O)([O-])OCC[N+](C)(C)C [LPC 20:5_0:0] (ion (formula + adduct): [C28H48NO7P+H] 1+),226.4,–,–
CCCCC/C=C\C/C=C\C/C=C\C/C=C\C/C=C\CCC(=O)OC[C@@H](O)COP(=O)([O-])OCC[N+](C)(C)C [LPC 22:5] (ion (formula + adduct): [C30H52NO7P+H] 1+),233.2,232.9,–
